Molecular target: T1, AR protein (Homo sapiens, UniProt P10275)
T1 construct: host or cells: VCaP
T1 sequence (P10275 1-920): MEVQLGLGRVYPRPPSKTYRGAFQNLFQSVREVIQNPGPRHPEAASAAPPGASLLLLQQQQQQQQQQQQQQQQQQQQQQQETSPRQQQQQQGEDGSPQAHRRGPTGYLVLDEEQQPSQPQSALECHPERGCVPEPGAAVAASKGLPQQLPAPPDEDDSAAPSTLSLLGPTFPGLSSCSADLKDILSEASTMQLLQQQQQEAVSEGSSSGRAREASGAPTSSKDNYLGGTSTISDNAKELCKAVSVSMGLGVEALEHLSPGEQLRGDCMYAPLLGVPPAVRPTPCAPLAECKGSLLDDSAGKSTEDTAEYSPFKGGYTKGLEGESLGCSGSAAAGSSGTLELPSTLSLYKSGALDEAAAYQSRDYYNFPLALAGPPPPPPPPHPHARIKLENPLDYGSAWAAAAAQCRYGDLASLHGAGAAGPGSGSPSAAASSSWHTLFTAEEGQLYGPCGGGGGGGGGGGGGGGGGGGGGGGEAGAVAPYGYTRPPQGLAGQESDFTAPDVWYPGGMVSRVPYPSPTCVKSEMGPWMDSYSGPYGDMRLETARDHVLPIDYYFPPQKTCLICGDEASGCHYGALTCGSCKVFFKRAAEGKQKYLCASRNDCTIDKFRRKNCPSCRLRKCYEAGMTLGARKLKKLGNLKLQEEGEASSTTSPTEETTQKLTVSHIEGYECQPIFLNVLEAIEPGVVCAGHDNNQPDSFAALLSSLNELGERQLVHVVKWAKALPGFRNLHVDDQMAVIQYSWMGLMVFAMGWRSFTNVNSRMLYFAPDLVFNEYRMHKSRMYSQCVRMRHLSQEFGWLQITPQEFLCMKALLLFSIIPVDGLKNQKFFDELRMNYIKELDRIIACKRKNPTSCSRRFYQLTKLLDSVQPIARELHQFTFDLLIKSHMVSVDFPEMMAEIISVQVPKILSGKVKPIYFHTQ
Type: cell-based
Conditions: 8 h
Method: Test Example 9 Degradation activity of the compounds disclosed in the present disclosure against AR protein in VCAP cells (cell source: ATCC)
AR-positive human prostate cancer cells, VCaP, were inoculated in six-well microplates (Thermo Catalog No. 140675) in DMEM (GiBco Catalog No. 11995-065) containing 10% FBS (Hyclone Catalog No. SH30406.05) at a density of 3 × 10^5 cells/well. […] After 8 h, the culture medium was discarded, and cells were washed with PBS, then RIPA lysis buffer containing 1% Protease Inhibitor Cocktail was added, and the total protein extract was obtained after lysis and centrifugation, and the protein concentration in the extract was detected by BCA method. Protein electrophoresis was carried out by SDS-PAGE, after which the protein was transferred to PVDF (Millipore Sigma catalog number PSRP010R5) membrane by 100V constant-voltage electrotransfer for 60 min, and the PVDF membrane was placed in 1×TBST solution with 5% milk and blocked at room temperature for 1 h. The primary antibody solution (Anti-Androgen receptor, Cell Signaling Technology Catalog No. 5153S; 1: 2000 dilution) was prepared and incubated overnight at 4°C. The primary antibody solution was discarded, and the PVDF membrane was washed three times with 1× TBST for 5 min each. The secondary antibody solution (Thermo catalog number SA5-35571; 1:7500 dilution) was prepared, and the secondary antibody dilution was incubated at room temperature for 1h. The secondary antibody solution was discarded, and the PVDF membrane was washed three times with 1×TBST for 5 min each. Western membrane imaging was performed using a dual-color infrared laser imaging system (Licor catalog number Odyssey CLX). Bands were analyzed in grayscale using the software Image Studio. For each sample, GAPDH protein bands were detected as internal reference. The degradation rates of the AR protein for the compounds and positive control sample were calculated based on the grayscale of the protein bands.

Row | SMILES | Degradation rates of the AR protein in VCAP cells, 0.5 nM [%] | Degradation rates of the AR protein in VCAP cells, 5 nM [%]
1 | COc1cc(O[C@H]2CC[C@H](NC(=O)c3ccc(N4CCC(C)(CN5CCC6(CC5)COc5c6ccc6c5C(=O)N(C5CCC(=O)NC5=O)C6)CC4)nn3)CC2)ccc1C#N (relative stereo) [2-261] | 44 | 82
2 | CC1(CN2CCC3(CC2)COc2c3ccc3c2C(=O)N(C2CCC(=O)NC2=O)C3)CCN(c2ccc(C(=O)N[C@H]3CC[C@H](Oc4ccc(C#N)c(Cl)c4)CC3)nn2)CC1 (relative stereo) [2-262] | 34 | 75
3 | COC1(CN2CCC3(CC2)COc2c3ccc3c2C(=O)N(C2CCC(=O)NC2=O)C3)CCN(c2ccc(C(=O)N[C@H]3CC[C@H](Oc4ccc(C#N)c(Cl)c4)CC3)nn2)CC1 (relative stereo) [2-263] | 65 | 88
4 | COc1cc(O[C@H]2C(C)(C)[C@H](NC(=O)c3ccc(N4CCC(C)(CN5CCC6(CC5)COc5c6ccc6c5C(=O)N(C5CCC(=O)NC5=O)C6)CC4)cc3)C2(C)C)ccc1C#N (relative stereo) [2-292] | 30 | 72
5 | COc1cc(O[C@H]2C(C)(C)[C@H](NC(=O)c3ccc(N4CCC(CN5CCC6(CC5)COc5c6ccc6c5C(=O)N(C5CCC(=O)NC5=O)C6)(OC)CC4)cc3)C2(C)C)ccc1C#N (relative stereo) [2-293] | 72 | 89
6 | N#Cc1ccc(O[C@H]2CC[C@H](NC(=O)c3ccc(N4CCC(F)(CN5CCC6(CC5)COc5c6ccc6c5C(=O)N(C5CCC(=O)NC5=O)C6)CC4)nn3)CC2)cc1Cl (relative stereo) [2-315] | 31 | 71
7 | COc1cc(O[C@H]2CC[C@H](NC(=O)c3ccc(N4CCC(F)(CN5CCC6(CC5)COc5c6ccc6c5C(=O)N(C5CCC(=O)NC5=O)C6)CC4)nn3)CC2)ccc1C#N (relative stereo) [2-316] | 35 | 61
8 | COc1cc(O[C@H]2C(C)(C)[C@H](NC(=O)c3ccc(N4CCC(CN5CCC6(CC5)COc5c6ccc6c5C(=O)N(C5CCC(=O)NC5=O)C6)CC4)cc3)C2(C)C)ccc1C#N (relative stereo) [2-318] | 55 | 78
9 | C[C@H]1CC2(CCN(c3ccc(N4CCC(CN5CCC6(CC5)COc5c6ccc6c5C(=O)N(C5CCC(=O)NC5=O)C6)CC4)cc3)CC2)CN1c1ccc(C#N)c(Cl)c1 (stereo partly drawn) [2-103] | 0 | 47

— EP4656642A1, “ESTROGEN RECEPTOR PROTEOLYSIS TARGETING CHIMERA COMPOUND AND USE THEREOF” (GAN & LEE PHARM CO., LTD, priority 2023, dated 2024)
